These results are taken from US6100239A, “13-membered ring macrolide compound, medicine containing the same, and process for producing the same” (Chugai Seiyaku Kabushiki Kaisha, priority 1996, dated 2000).

The experiment addresses T1, Motilin receptor (Oryctolagus cuniculus, UniProt G1T803).
T1 construct: homogenized in a 50 mM Tris solution (pH 7.4) to prepare a protein solution; from tissue; host or cells: rabbit duodenum (mucous membrane detached from the tunica muscularis, then homogenized)
Put plainly: Motilin receptor binding test (125I-labeled motilin). Conditions: rabbit duodenum tunica muscularis homogenate; 25 pM 125I-labeled motilin; 25° C., 120 minutes; test drug in DMSO (final 1%); read-out: IC50, the concentration of the test drug which reduces the specific binding capacity to 50%. On the procedure: Motilin receptor binding test was carried out by the method shown below (see V. Bormans, et al., Regul, Peptides, 15, 143 (1986)). From a slaughtered rabbit was removed the duodenum, of which the mucous membrane was detached from the tunica muscularis and then homogenized in a 50 mM Tris solution (pH 7.4) to prepare a protein solution. After incubating 25 pM ^125 I-labeled motilin (available from Otsuka Assay Laboratory) and the protein solution at 25° C. for 120 minutes, radioactivity in the protein solution was measured with a γ-ray counter. The difference between the radioactivity observed in the case of non-addition of motilin and that observed in the case of addition of an excess (1×10^-7 M) of motilin was defined as the specific binding capacity. The efficacy of the sample was expressed as IC50, the concentration of the test drug which reduces the specific binding capacity to 50%. The test drug was dissolved in a DMSO solution and added to the protein solution (the final DMSO concentration: 1%).

T1 sequence (G1T803 1-400): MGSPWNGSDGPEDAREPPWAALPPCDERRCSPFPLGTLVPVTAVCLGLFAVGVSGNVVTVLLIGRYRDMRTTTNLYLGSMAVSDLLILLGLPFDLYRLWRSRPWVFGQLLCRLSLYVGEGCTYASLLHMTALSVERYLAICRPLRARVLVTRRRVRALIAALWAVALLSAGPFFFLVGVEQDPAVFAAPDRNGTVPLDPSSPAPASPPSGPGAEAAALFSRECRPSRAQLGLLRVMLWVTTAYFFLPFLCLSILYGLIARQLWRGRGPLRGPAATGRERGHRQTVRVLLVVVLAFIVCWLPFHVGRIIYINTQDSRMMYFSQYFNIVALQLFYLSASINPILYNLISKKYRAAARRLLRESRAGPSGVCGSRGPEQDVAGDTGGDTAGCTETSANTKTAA

On to `COC1(C)CC(OC2C(C)C(=O)OC(C)C(=O)C(C)C3=C(C)CC(C)(O3)C(OC3OC(C)CC(N(C)C)C3O)C2C)OC(C)C1O` (stereo not shown) [Compound 4], for which the IC50 stood at 5.7 nM.
